Assay results as given in patent US12281086B2, “2-aminothiazoles derivatives and method of preparation thereof using super-paramagnetic iron oxide nanoparticles (SPIONs)” (Imam Abdulrahman Bin Faisal University, priority 2023, dated 2025).

Legend:
Type in all cases: cell-based
E. coli = experiment: Anti-microbial activity, inhibition zone, E. coli; as to Inhibition Zone(mm ± SD) E. coli: test concentration or dose not given here
Procedure: (§1) All synthesized compounds were tested for their antimicrobial activities against five types of microorganisms, including gram-negative and positive bacteria and fungi. The gram-negative bacteria include E. coli and P. aeruginosa, while B. subtilis and S. aureus represented the gram-positive bacteria. C. albicans was the fungus used in the screening. […] In addition, the antibacterial activity of the Schiff bases seems to be insensitive to the position and the nature of the substituents. […] For the gram-positive bacteria, the antibacterial activity was more significant in Schiff base derivatives when compared to azo derivatives.

C. albicans = experiment: Anti-microbial (antifungal) activity, inhibition zone, C. albicans; also: test concentration or dose not given here
Procedure: as §1

B. subtilis = experiment: Anti-microbial activity, inhibition zone, B. subtilis; as to Inhibition Zone(mm ± SD) Bacillus: test concentration or dose not given here; details: for Inhibition Zone(mm ± SD) Bacillus: Bacillus (B. subtilis)
Procedure: as §1

S. aureus = experiment: Anti-microbial activity, inhibition zone, S. aureus; as to Inhibition Zone(mm ± SD) S. aureus: test concentration or dose not given here
Procedure: as §1

P. aeruginosa = experiment: Anti-microbial activity, inhibition zone, P. aeruginosa; as to Inhibition Zone(mm ± SD) P. aeruginosa: test concentration or dose not given here
Procedure: as §1

Row | SMILES | Inhibition Zone(mm ± SD) E. coli (E. coli) [mm] | Inhibition Zone(mm ± SD) Candida (C. albicans) | Inhibition Zone(mm ± SD) Bacillus (B. subtilis) | Inhibition Zone(mm ± SD) S. aureus (S. aureus) | Inhibition Zone(mm ± SD) P. aeruginosa (P. aeruginosa) | activity against B. subtilis (in words) (B. subtilis) | activity against S. aureus (in words) (S. aureus) | growth inhibition against P. aeruginosa (in words) (P. aeruginosa) | antibacterial activity against E. coli (in words) (E. coli)
1 | Clc1ccc(C=Nc2nccs2)cc1 [Compound 10, N-(4-chlorobenzylidene)thiazol-2-amine] | 14.3 ± 0.4 | Nil | Nil | Nil | Nil | – | – | – | –
2 | ClN=Nc1nccs1 [Compound 2, 2-(Chlorodiazenyl)Thiazole] | 10.15 ± 0.4 | Nil | Nil | Nil | Nil | – | – | – | –
3 | Oc1ccccc1C=Nc1nccs1 [Compound 13, 2-((thiazol-2-ylimino)methyl)phenol] | 14.95 ± 0.5 | Nil | 11.3 ± 0.4 mm | 9.6 ± 0.3 mm | 9 ± 0.8 mm | exhibited activities | exhibited activities | showed growth inhibition | –
4 | CC1=NNC(=O)C1N=Nc1nccs1 (stereo not drawn) [Compound 6, 3-methyl-4-(thiazol-2-yldiazenyl)-1H-pyrazol-5(4H)-one] | 22 ± 0.8 | Nil | Nil | Nil | 16 mm | – | – | showed growth inhibition | most potent antibacterial activity
5 | Cc1[nH]c2ccccc2c1C=Nc1nccs1 [Compound 18, N-((2-methyl-1H-indol-3-yl)methylene)thiazol-2-amine] | 16.2 ± 0.9 | Nil | 10 ± 0.2 mm | 11.3 ± 0.4 mm | 14.6 ± 0.7 mm | – | – | showed growth inhibition | –
6 | Nc1nccs1 [Compound 1, 2-aminothiazole] | 9.8 ± 0.2 | Nil | Nil | Nil | Nil | – | – | – | –
7 | NC1=NNC(=O)C1N=Nc1nccs1 (stereo not drawn) [Compound 7, 3-amino-4-(thiazol-2-yldiazenyl)-1H-pyrazol-5(4H)-one] | 16 ± 1.4 | 12 ± 0 mm | 8.6 ± 0.4 mm | 12.3 ± 0.9 mm | Nil | showed activity | showed activity | – | –
8 | COc1ccc(C=Nc2nccs2)cc1 [Compound 14, N-(4-methoxybenzylidene)thiazol-2-amine] | 12.3 ± 0.4 | Nil | 10.3 ± 0.4 mm | Nil | Nil | – | – | – | –
9 | Oc1ccc(C=Nc2nccs2)cc1 [Compound 12, 4-((thiazol-2-ylimino)methyl)phenol] | 13.3 ± 1.2 | Nil | Nil | 10.3 ± 0.7 mm | Nil | – | – | – | –
10 | COc1cccc(C=Nc2nccs2)c1OC [Compound 17, N-(2,3-dimethoxybenzylidene)thiazol-2-amine] | 10.95 ± 0.3 | Nil | Nil | 9.3 ± 0.4 mm | Nil | – | – | – | –
11 | COc1ccc(C=Nc2nccs2)c(OC)c1 [Compound 16, N-(2,4-dimethoxy-benzylidene)-thiazol-2-yl-amine] | 13 ± 0.4 | Nil | 12.3 ± 0.4 mm | 13 ± 0.1 mm | Nil | exhibited activities | exhibited activities | – | –
12 | O=[N+]([O-])c1ccccc1C=Nc1nccs1 [Compound 11, N-(2-nitrobenzylidene)thiazol-2-amine] | 12.3 ± 0.9 | Nil | 8.6 ± 0.9 mm | 10.6 ± 0.4 mm | 11.8 ± 0.6 mm | exhibited activities | exhibited activities | showed growth inhibition | –
13 | C(=Nc1nccs1)c1ccccc1 [Compound 9, N-(benzylidene)thiazol-2-amine] | 8.8 ± 0.4 | Nil | Nil | Nil | 8 ± 0 mm | – | – | showed growth inhibition | least potent
14 | COc1ccccc1C=Nc1nccs1 [Compound 15, N-(2-methoxybenzylidene)thiazol-2-amine] | 12.6 ± 0.5 | Nil | Nil | Nil | Nil | – | – | – | –
15 | CC1=NN=C(C)C1N=Nc1nccs1 [Compound 8, (3,5-Dimethyl-4H-pyrazol-4-yl)-thiazol-2-yl-diazene] | 20.6 ± 0.9 | Nil | 10.6 ± 0.4 mm | Nil | Nil | – | – | – | –
